Data from paper PMC3894558, “Chemical signatures and new drug targets for gametocytocidal drug development” (Scientific Reports, 2014).
Like-named read-outs stand apart in the source and are kept apart here.

Columns and labels:
[1] = system: P. falciparum 3D7 gametocytes; assay: alamarBlue gametocyte viability assay, strain 3D7; format: cell-based, Plasmodium falciparum; conditions: for Max Resp: DMSO set at 0%, 100 nM epoxomicin set at -100%
[2] = system: P. falciparum Dd2 gametocytes; assay: alamarBlue gametocyte viability assay, strain Dd2; format: cell-based, Plasmodium falciparum
Protocol: Briefly, gametocyte cultures were set up at 0.1% parasitemia and on days 9–10 treated with 50 mM N-acetylglucosamine (NAG) to block further asexual growth. Stage III–V gametocytes were isolated by Percoll density gradient centrifugation on day 12 and returned to culture for 24 hrs before being used in the assay[9].
Briefly, 2.5 μl/well incomplete medium was dispensed into each well of 1,536-well plates using the Multidrop Combi followed by 23 nl compound transferring using the NX-TR Pintool (WAKO Scientific Solutions, San Diego, CA). Then, 2.5 μl/well of gametocytes was dispensed with a seeding density of 20,000 cells/well using the Multidrop Combi. The assay plates were incubated for 72 hrs at 37°C with 5% CO2.

[3] = system: P. falciparum HB3 gametocytes; assay: alamarBlue gametocyte viability assay, strain HB3; format: cell-based, Plasmodium falciparum
HepG2 cells = assay: cells; conditions: Homo sapiens; for Emax: HepG2, read-out: % Max response; for IC50: HepG2, read-out: IC50 in HepG2 cells
Description: Growth medium was made with Dulbecco's Modified Eagle Medium with 10% fetal bovine serum (FBS).

[4] = Plasmodium falciparum, DD2, strain profiling, 11 concentrations, 1:3 dilution, three times, read-out: Dd2-gametocytes IC50
[5] = Plasmodium falciparum, HB3, strain profiling, 11 concentrations, 1:3 dilution, three times, read-out: HB3-gametocytes IC50
[6] = Plasmodium falciparum, 3D7, P. falciparum 3D7 gametocytes, mean of at least 3 independent experiments, read-out: Gametocyte IC50
[7] = Plasmodium falciparum, DD2, read-out: Dd2-gametocytes IC50
[8] = Plasmodium falciparum, 3D7, strain profiling, 11 concentrations, 1:3 dilution, three times, read-out: 3D7-gametocytes IC50
[9] = Malaria Box, stages III-V 3D7 gametocytes
[10] = Malaria Box, stages III-V 3D7 gametocytes, 11 concentrations, 1:3 dilution, read-out: IC50
[11] = Malaria Box, stages III-V 3D7 gametocytes, 11 concentrations, 1:3 dilution

IC50 [2, 4] [nM] | IC50 (HepG2 cells) [nM] | SMILES | IC50 [3, 5] [nM] | IC50 [1, 6] [nM] | Emax (HepG2 cells) [%] | Max Resp ([1]; Malaria Box) [%] | Curve Class [1, 9] | also measured
1320 |  | c1cnc2c(c1)ccc1cccnc12 [1,10-Phenanthroline] | 1180 |  |  |  |  | IC50 ([1]; Plasmodium falciparum, 3D7, read-out: 3D7-gametocytes IC50, strain profiling, 11 concentrations, 1:3 dilution, three times): 743 nM
94 | 148 | CC(C)C[C@H](NC(=O)[C@H](Cc1ccccc1)NC(=O)c1cnccn1)B(O)O [Bortezomib] | 74 | 118 | -82 |  |  | 
429 | 6790 | C#Cc1cccc(Nc2ncnc3cc(OC)c(OCCCCCCC(=O)NO)cc23)c1 [CUDC-101] | 152 | 833 | -76 |  |  | fold more potent against HB3 compared to 3D7 gametocytes [3]: 5.5 fold
 |  | CNc1ccc2oc(C[C@H]3O[C@@]4(CC[C@H]3C)O[C@H]([C@H](C)C(=O)c3ccc[nH]3)[C@H](C)C[C@H]4C)nc2c1C(=O)O [Calcimycin] |  |  |  |  |  | IC50 [1, 8]: 2640 nM; IC50 [2, 7]: 1660 nM; IC50 ([3]; Plasmodium falciparum, HB3, read-out: HB3-gametocytes IC50): 5900 nM
2 | 1180 | CC(C)C[C@H](NC(=O)[C@H](CCc1ccccc1)NC(=O)CN1CCOCC1)C(=O)N[C@@H](Cc1ccccc1)C(=O)N[C@@H](CC(C)C)C(=O)[C@@]1(C)CO1 [Carfilzomib] | 3 | 12 | -79 |  |  | IC50 [1, 8]: 4 nM
 |  | Cc1cc(NC2CCCCC2)nc(-n2nc(C)cc2C)n1 [CyPPA] |  |  |  |  |  | IC50 ([1]; strain profiling, 11 concentrations, 1:3 dilution, three times, read-out: 3D7-gametocytes IC50): 469 nM; IC50 ([2]; strain profiling, 11 concentrations, 1:3 dilution, three times, read-out: Dd2-gametocytes IC50): 590 nM; IC50 ([3]; strain profiling, 11 concentrations, 1:3 dilution, three times, read-out: HB3-gametocytes IC50): 743 nM
 |  | c1ccc2c(c1)[I+]c1ccccc1-2 [Diphenyleneiodonium] | 296 |  |  |  |  | IC50 [1, 8]: 132 nM; IC50 [2, 7]: 209 nM
 |  | COc1cc(C(=O)ON=C(N)Cc2cccc3ccccc23)cc(OC)c1OC [MMV666687] |  |  |  | -100 | -2.1 | IC50 [1, 10]: 14800 nM
 |  | Cc1cc(C=C2SC(=Nc3ccccc3)N(C3CCCC3)C2=O)c(C)n1-c1ccc(Cl)cc1 [MMV666688] |  |  |  | -20 | 4 | IC50 [1, 11]: Inactive
 |  | COc1ccc(Nc2nc(N/N=C/c3ccc(O)cc3)nc(Nc3ccc([N+](=O)[O-])cc3)n2)cc1 [MMV666689] |  |  |  | -64 | -1.2 | IC50 [1, 10]: 6620 nM
 |  | COc1ccc(C=C2SC(=N)N(c3ccccc3OC)C2=O)cc1 [MMV666691] |  |  |  | -7 | 4 | IC50 [1, 11]: Inactive
 |  | CCCCCCc1cc2cc(-c3csc(C=Cc4ccccc4)n3)c(=O)oc2cc1O [MMV666692] |  |  |  | -54 | -2.2 | IC50 [1, 10]: 29600 nM
 |  | COc1cccc(C=Cc2nc(=O)c3ccccc3o2)c1OC [MMV666693] |  |  |  | 19 | 4 | IC50 [1, 11]: Inactive
 |  | CCOc1ccc(N2C(N)=NC(N)=NC2(C)C)cc1.Cl [MMV667486] |  |  |  | -4 | 4 | IC50 [1, 11]: Inactive
 |  | CN(C)c1ccc(N2C(N)=NC(N)=NC2(C)C)cc1 [MMV667487] |  |  |  | -4 | 4 | IC50 [1, 11]: Inactive
 |  | COc1ccc(CCn2c(=N)c(C(=O)NCc3cccnc3)cc3c(=O)n4cccc(C)c4nc32)cc1 [MMV667488] |  |  |  | -32 | -1.2 | IC50 [1, 10]: 2640 nM

SMILES | IC50 [2, 4] [nM] | IC50 (HepG2 cells) [nM] | IC50 [3, 5] [nM] | IC50 [1, 6] [nM] | Emax (HepG2 cells) [%] | Max Resp ([1]; Malaria Box) [%] | Curve Class [1, 9] | also measured
CN(C)C/C=C/C(=O)Nc1cc2c(Nc3ccc(F)c(Cl)c3)ncnc2cc1O[C@H]1CCOC1 [Afatinib] | 2960 | 18700 | 4180 | 935 | -100 |  |  | 
CO[C@H]1/C=C\C=C(/C)C(=O)NC2=CC(=O)C(NCCN(C)C)=C(C[C@@H](C)C[C@H](OC)[C@H](O)[C@@H](C)/C=C(\C)[C@@H]1OC(N)=O)C2=O [Alvespimycin] |  | 118 | 235 | 74 | -94 |  |  | IC50 [2, 7]: 94 nM
[O-][n+]1ccccc1SSc1cccc[n+]1[O-] [Dipyrithione] |  | 10800 | 743 | 263 | -93 |  |  | IC50 [2, 7]: 590 nM
CCN(CC)C(=S)SSC(=S)N(CC)CC [Disulfiram] | 96 |  | 108 |  |  |  |  | IC50 [1, 8]: 96 nM
